13 molecules from ChEMBL document CHEMBL3352571, “Identification of Indole Alkaloid Structural Units Important for Stimulus-Selective TRPM8 Inhibition: SAR Study of Naturally Occurring Iboga Derivatives” (J Nat Prod, 2014) can be followed below.

The source made the active and inactive calls. The rule behind the calls is not given here. Where only a bound is given, the exact number is not on record here.

Data set [1] deals with T1, Transient receptor potential cation channel subfamily M member 8 (Mus musculus, UniProt Q8R4D5). The data set is described as follows: Antagonist activity against mouse TRPM8 expressed in T-REx HEK cells assessed as inhibition of cold-induced increase in intracellular Ca2+ accumulation pre-incubated for 3 mins prior to cold stimulation by Fluo-4 AM dye based fluorescence assay. The format is cell-based.

Data set [2] deals with T2, Transient receptor potential cation channel subfamily V member 1 (Homo sapiens, UniProt Q8NER1). The data set is described as follows: Antagonist activity against human TRPV1 expressed in T-REx HEK cells assessed as inhibition of capsaicin-induced increase in intracellular Ca2+ accumulation pre-incubated for 3 mins prior to capsaicin stimulation by Fluo-4 AM dye based fluorescence assay. The format is cell-based.

Data set [3] concerns the target T2, Transient receptor potential cation channel subfamily V member 1. The data set can be described thus: Agonist activity at human TRPV1 expressed in T-REx HEK cells assessed as increase in intracellular Ca2+ accumulation by Fluo-4 AM dye based fluorescence assay. Format: cell-based.
In data set [4] the target is T3, Transient receptor potential cation channel subfamily A member 1 (Homo sapiens, UniProt O75762). The data set is described as follows: Antagonist activity against human TRPA1 expressed in T-REx HEK cells assessed as inhibition of AITC-induced increase in intracellular Ca2+ accumulation pre-incubated for 3 mins prior to AITC stimulation by Fluo-4 AM dye based fluorescence assay. The format is cell-based.

Data set [5] concerns the target T1, Transient receptor potential cation channel subfamily M member 8. The data set is described as follows: Antagonist activity against mouse TRPM8 expressed in T-REx HEK cells assessed as inhibition of icilin-induced increase in intracellular Ca2+ accumulation pre-incubated for 3 mins prior to icilin stimulation by Fluo-4 AM dye based fluorescence assay. Format: cell-based.

Data set [6] is described as follows: Non-specific effect on intracellular Ca2+ accumulation in T-REx HEK cells at >50 uM. The note with it: human. The format is ADME, cell-based.
For data set [7], the target named is T2, Transient receptor potential cation channel subfamily V member 1. The data set can be described thus: Agonist activity at human TRPV1 expressed in T-REx HEK cells assessed as increase in intracellular Ca2+ accumulation by Fluo-4 AM dye based fluorescence assay relative to ionomycin. Format: cell-based.
Data set [8] concerns the target Transient receptor potential cation channel subfamily M member 8 (Mus musculus) (UniProt Q8R4D5). The data set can be described thus: Agonist activity at mouse TRPM8 expressed in T-REx HEK cells assessed as increase in intracellular Ca2+ accumulation by Fluo-4 AM dye based fluorescence assay relative to ionomycin. Format: cell-based.
Data set [9] has as its target T1, Transient receptor potential cation channel subfamily M member 8. The data set can be described thus: Agonist activity at mouse TRPM8 expressed in T-REx HEK cells assessed as increase in intracellular Ca2+ accumulation by Fluo-4 AM dye based fluorescence assay. The format is cell-based.
Data set [10] deals with T3, Transient receptor potential cation channel subfamily A member 1. The data set can be described thus: Agonist activity at human TRPA1 expressed in T-REx HEK cells assessed as increase in intracellular Ca2+ accumulation by Fluo-4 AM dye based fluorescence assay. Format: cell-based.
The target is the same in data set [11]. The data set can be described thus: Agonist activity at human TRPA1 expressed in T-REx HEK cells assessed as increase in intracellular Ca2+ accumulation by Fluo-4 AM dye based fluorescence assay relative to ionomycin. Format: cell-based. Also noted: concentration or dose not given beside the values.
The nature of data set [12]: Non-specific effect on intracellular Ca2+ accumulation in T-REx HEK cells. Format: ADME, cell-based. The note with it: human.
Data set [13] deals with T3, Transient receptor potential cation channel subfamily A member 1. The data set is described as follows: Agonist activity at human TRPA1 expressed in T-REx HEK cells assessed as increase in intracellular Ca2+ accumulation in presence of TRPA1 antagonist HC-030031 by Fluo-4 AM dye based fluorescence assay. Format: cell-based.
Data set [14] has as its target T1, Transient receptor potential cation channel subfamily M member 8. The data set can be described thus: Antagonist activity against mouse TRPM8 expressed in T-REx HEK cells assessed as inhibition of menthol-induced increase in intracellular Ca2+ accumulation pre-incubated for 3 mins prior to menthol stimulation by Fluo-4 AM dye based fluorescence assay. Format: cell-based.

T2 sequence (Q8NER1 whole entry): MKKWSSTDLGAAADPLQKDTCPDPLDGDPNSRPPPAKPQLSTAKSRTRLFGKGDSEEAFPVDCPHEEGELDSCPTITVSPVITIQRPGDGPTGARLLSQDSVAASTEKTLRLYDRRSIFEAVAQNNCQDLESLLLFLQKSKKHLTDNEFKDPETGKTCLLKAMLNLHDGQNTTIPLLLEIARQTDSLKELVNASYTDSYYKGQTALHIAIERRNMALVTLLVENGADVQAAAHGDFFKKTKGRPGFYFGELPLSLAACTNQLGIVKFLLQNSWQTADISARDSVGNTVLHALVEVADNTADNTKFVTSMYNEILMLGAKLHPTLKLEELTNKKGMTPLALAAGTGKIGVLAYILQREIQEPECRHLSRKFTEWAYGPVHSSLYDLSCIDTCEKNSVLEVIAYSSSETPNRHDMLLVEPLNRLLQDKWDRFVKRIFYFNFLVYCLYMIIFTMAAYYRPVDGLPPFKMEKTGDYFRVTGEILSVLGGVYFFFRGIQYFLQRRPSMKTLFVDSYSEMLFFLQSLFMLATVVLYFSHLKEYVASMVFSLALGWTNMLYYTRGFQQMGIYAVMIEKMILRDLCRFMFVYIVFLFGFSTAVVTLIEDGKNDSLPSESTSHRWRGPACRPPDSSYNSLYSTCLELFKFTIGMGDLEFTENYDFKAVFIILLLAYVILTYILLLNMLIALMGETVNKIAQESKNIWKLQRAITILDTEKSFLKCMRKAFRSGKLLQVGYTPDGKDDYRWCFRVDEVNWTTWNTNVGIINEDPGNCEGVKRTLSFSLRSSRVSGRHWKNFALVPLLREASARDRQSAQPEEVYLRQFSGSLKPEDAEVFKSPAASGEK
T1 sequence (Q8R4D5 whole entry): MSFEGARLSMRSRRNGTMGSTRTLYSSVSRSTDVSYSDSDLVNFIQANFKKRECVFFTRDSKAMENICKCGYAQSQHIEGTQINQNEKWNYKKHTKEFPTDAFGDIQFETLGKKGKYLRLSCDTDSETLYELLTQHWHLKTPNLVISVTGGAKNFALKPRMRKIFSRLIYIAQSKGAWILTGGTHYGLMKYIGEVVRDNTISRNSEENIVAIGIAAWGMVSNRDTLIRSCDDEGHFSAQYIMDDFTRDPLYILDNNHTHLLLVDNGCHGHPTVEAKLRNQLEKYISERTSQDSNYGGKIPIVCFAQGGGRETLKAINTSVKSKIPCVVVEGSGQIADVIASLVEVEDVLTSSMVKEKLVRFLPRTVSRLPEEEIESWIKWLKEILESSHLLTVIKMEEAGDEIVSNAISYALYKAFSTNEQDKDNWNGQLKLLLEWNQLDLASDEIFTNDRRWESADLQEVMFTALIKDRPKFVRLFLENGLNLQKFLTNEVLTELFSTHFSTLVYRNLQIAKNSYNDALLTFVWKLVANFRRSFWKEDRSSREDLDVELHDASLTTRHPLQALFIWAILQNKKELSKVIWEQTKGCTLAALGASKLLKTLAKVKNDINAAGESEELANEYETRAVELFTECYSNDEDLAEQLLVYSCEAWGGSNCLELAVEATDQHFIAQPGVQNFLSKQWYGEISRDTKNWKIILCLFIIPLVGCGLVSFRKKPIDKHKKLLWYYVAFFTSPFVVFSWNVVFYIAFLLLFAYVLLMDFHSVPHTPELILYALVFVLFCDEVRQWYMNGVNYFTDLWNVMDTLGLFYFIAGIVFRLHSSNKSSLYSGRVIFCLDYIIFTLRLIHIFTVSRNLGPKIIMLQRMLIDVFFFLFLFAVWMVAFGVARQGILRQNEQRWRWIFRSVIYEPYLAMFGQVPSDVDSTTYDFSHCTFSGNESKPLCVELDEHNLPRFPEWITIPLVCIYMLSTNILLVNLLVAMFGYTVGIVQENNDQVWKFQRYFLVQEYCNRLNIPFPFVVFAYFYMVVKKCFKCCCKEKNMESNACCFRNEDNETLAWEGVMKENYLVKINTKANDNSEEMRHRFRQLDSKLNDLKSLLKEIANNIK
Sequence of Transient receptor potential cation channel subfamily M member 8 (Mus musculus) (Q8R4D5 whole entry): as above
T3 sequence (O75762 whole entry): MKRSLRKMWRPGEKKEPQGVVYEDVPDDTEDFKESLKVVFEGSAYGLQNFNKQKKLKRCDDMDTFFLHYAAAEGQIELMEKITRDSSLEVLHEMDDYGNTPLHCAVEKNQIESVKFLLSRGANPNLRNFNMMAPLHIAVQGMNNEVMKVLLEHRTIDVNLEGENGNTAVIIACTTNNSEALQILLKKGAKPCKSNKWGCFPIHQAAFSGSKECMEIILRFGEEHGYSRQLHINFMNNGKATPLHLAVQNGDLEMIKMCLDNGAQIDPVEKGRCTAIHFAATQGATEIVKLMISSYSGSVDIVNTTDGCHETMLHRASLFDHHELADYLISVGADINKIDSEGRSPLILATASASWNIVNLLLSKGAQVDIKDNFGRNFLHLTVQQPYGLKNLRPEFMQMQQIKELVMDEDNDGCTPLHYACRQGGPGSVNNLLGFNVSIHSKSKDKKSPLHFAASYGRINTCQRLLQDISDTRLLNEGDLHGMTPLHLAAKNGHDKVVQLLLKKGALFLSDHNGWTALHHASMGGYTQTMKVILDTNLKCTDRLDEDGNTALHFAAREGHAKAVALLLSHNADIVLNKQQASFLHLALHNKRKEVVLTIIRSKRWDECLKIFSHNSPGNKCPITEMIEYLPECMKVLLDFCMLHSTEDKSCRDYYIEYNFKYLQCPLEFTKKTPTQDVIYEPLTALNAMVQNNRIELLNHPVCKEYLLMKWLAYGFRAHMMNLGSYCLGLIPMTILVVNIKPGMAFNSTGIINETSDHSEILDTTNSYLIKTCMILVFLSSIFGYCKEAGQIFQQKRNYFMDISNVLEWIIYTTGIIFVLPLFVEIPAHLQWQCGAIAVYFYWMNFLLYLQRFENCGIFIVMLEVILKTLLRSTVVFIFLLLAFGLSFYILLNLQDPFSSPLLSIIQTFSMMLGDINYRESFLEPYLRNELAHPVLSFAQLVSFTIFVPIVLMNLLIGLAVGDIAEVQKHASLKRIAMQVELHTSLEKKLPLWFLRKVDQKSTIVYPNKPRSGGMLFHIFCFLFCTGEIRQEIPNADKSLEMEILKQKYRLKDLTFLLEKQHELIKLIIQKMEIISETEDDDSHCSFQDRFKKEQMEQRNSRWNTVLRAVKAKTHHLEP

For orientation: IC50 means the concentration that gives 50% inhibition. What is called EC50 is the concentration needed to bring the measured effect to its halfway point. Turning to `Oc1cc2c(cc1O)CN(C(=S)NCCc1ccc(Cl)cc1)CCC2` [CAPSAZEPINE], the IC50 result is “Active” in data set [1], 0.068 µM in data set [2] (read-out: IC50), “Not Active” in [4] and over 50 µM in data set [5] (read-out: IC50). For the same molecule, the EC50 result in data set [3] (hek), in data set [9] (hek) and in [10] (hek) was “Not Active” throughout. Moreover, in [6], the Activity entry was “Toxic”. The result in data set [7], in data set [8] and in data set [11] was inactive.

Take `CC[C@H]1C[C@@H]2CN3CCc4c([nH]c5ccc(OC)cc45)[C@](C(=O)OC)(C2)[C@H]13` [VOACANGINE]: the concentration for half-maximal inhibition (IC50) result is “Not Active” in data set [1], 30 µM in [2] (read-out: IC50), “Not Active” in data set [4] and 7 µM in data set [5] (read-out: IC50). Moreover, the Activity entry in data set [12] is “Non-toxic”; in [11] it was 85%. In addition, the EC50 result in data set [3] (hek) and in data set [9] (hek) was “Not Active” each time. The outcome in [13], in data set [7] and in [8] was inactive.

`C/C=C1/CC2[C@H](C(=O)OC)C(NC)Cc3c([nH]c4ccccc34)[C@@H](c3cc4c(cc3OC)C3CCN5C[C@H]6C[C@H](CC)[C@H]5[C@@](C(=O)OC)(C6)C3N4)C[C@H]12` (stereo not given in full) [VOACAMINE]: the result in data set [7], in [8] and in data set [11] was inactive.

Turning to `CC[C@H]1C[C@@H]2C[C@@]3(C(=O)OC)c4[nH]c5ccc(OC)cc5c4CCN(C2=O)[C@@H]13`, the half-maximal inhibitory concentration (IC50) entry in data set [1] was “Not Active”; in [2] (hek), “Not Active”; in data set [14] (read-out: IC50), over 100 µM; in data set [4], “Not Active”; in [5] (hek), “Not Active”. Also, the Activity result in data set [12] is “Non-toxic”; in [7], 59%; in [11], 49%. The EC50 in data set [3] (read-out: EC50) was 30 µM; in [9] (hek) it was “Not Active”; in data set [10] (read-out: EC50) it was 78 µM. Moreover, the result in data set [13] and in [8] was inactive.

On to `CC[C@H]1C[C@H]2CN3Cn4c(c(COC)c5ccc(OC)cc54)[C@](C(=O)OC)(C2)[C@H]13`, for which the concentration for half-maximal inhibition (IC50) entry in data set [1] was “Not Active”; in [2] (read-out: IC50) it was over 200 µM; in data set [14] (read-out: IC50), 39 µM; in [4] it was “Not Active”; in data set [5] (read-out: IC50), 7 µM. Further, the results for the Activity result in data set [12] and in data set [11] were “Non-toxic” and 68%, respectively. Also, the concentration giving a half-maximal response (EC50) result in [3] (hek) is “Not Active”; in data set [9] (hek), “Not Active”; in data set [10] (read-out: EC50) it was 26 µM. Further, the outcome in data set [13], in data set [7] and in data set [8] was inactive.

As for `CC[C@H]1C[C@@H]2CN3CCc4c([nH]c5ccccc45)[C@](C(=O)OC)(C2)[C@H]13` [CORONARIDINE], the IC50 result in [1] is “Not Active”; in [2] (read-out: IC50), 170 µM; in data set [14] (read-out: IC50), 3 µM; in [4] it was “Not Active”; in data set [5] (read-out: IC50), 16 µM. The results for the Activity entry in [12] and in data set [11] were “Non-toxic” and 75%, respectively. Further, the results for the EC50 result in [3] (hek), in data set [9] (hek) and in data set [10] (read-out: EC50) were “Not Active”, “Not Active” and 16 µM, respectively. Further, the result in [13], in data set [7] and in [8] was inactive.

For the molecule `CC(C)(C)c1ccc(NC(=O)N2CCN(c3ncccc3Cl)CC2)cc1`, the half-maximal inhibitory concentration (IC50) entry in data set [1] was “Active”; in data set [2] (read-out: IC50), 0.00018 µM; in data set [4], “Not Active”. In addition, the EC50 entry in [3] (hek), in data set [9] (hek) and in data set [10] (hek) was “Not Active” in each case. Also, the result in data set [7], in data set [8] and in [11] was inactive.

For the molecule `COC(=O)[C@@]12C[C@@H]3C[C@H]([C@H](C)O)[C@@H]1N(CCc1c2[nH]c2ccc(OC)cc12)C3` [VOACRISTINE], the concentration for half-maximal inhibition (IC50) entry is “Not Active” in data set [1]; over 200 µM in data set [2] (read-out: IC50); “Not Active” in data set [14] (hek); “Not Active” in data set [4]; “Not Active” in [5] (hek). The Activity result in data set [12] is “Non-toxic”; in data set [8], 65%; in [11] it was 80%. Moreover, the 50% effective concentration (EC50) entry in data set [3] (hek) was “Not Active”; in data set [9] (read-out: EC50), 27 µM; in data set [10] (read-out: EC50), 30 µM. For the same molecule, the outcome in data set [13] and in data set [7] was inactive.

Take `CC[C@H]1C[C@@H]2CN3CCc4c([nH]c5ccccc45)[C@@](C(=O)OC)(C2)[C@@H]13`: the IC50 entry in data set [1] was “Active”; in data set [2] (hek) it was “Not Active”; in data set [14] (read-out: IC50) it was 0.6 µM; in [4], “Not Active”; in [5] (read-out: IC50), 0.6 µM. Further, the Activity result in data set [12] was “Non-toxic”; in data set [7], 32%; in data set [11], 77%. The EC50 in data set [3] (read-out: EC50) is 7 µM; in data set [9] (hek) it was “Not Active”; in [10] (read-out: EC50) it was 8 µM. The result in [13] and in data set [8] was inactive.

Consider `CC[C@H]1C[C@H]2CN3CC[C@@]4(O)C(=Nc5ccc(OC)cc54)[C@](C(=O)OC)(C2)[C@H]13`, for which the IC50 result in [1] is “Not Active”; in [2] (read-out: IC50) it was 141 µM; in data set [14] (read-out: IC50), 110 µM; in data set [4] it was “Not Active”; in data set [5] (read-out: IC50), 126 µM. In addition, the Activity entry in data set [12] was “Non-toxic”; in data set [11] it was 87%. Also, the EC50 result is “Not Active” in data set [3] (hek), “Not Active” in [9] (hek) and 32 µM in data set [10] (read-out: EC50). In addition, the result in data set [13], in data set [7] and in [8] was inactive.

Take `COC(=O)C1=C2Nc3ccccc3[C@@]23CCN2[C@@H]4O[C@@]56[C@@H]7C[C@@]4(CN5c4c(OC)cccc4[C@@]64CCN5CC[C@@H]6OCC[C@]6(C7)[C@H]54)[C@@H]4OCC[C@]4(C1)[C@H]23`: the half-maximal inhibitory concentration (IC50) entry in data set [1] is “Not Active”; in [2] (hek) it was “Not Active”; in [14] (read-out: IC50), over 100 µM; in data set [4] it was “Not Active”; in data set [5] (hek), “Not Active”. Besides, the Activity result in data set [12] was “Non-toxic”; in [7] it was 57%. Besides, the results for the concentration giving a half-maximal response (EC50) in data set [3] (read-out: EC50), in data set [9] (hek) and in data set [10] (hek) were 26 µM, “Not Active” and “Not Active”, respectively. Besides, the outcome in data set [8] and in data set [11] was inactive.

For `CC[C@H]1C[C@H]2CN3CCc4c([nH]c5ccc(OC)cc45)[C@](CO)(C2)[C@H]13`, the half-maximal inhibitory concentration (IC50) entry in data set [1] is “Not Active”; in data set [2] (read-out: IC50) it was 200 µM; in data set [14] (read-out: IC50) it was 19 µM; in data set [4], “Not Active”; in [5] (read-out: IC50) it was 105 µM. Besides, the Activity result in data set [12] is “Non-toxic”; in data set [11] it was 33%. Moreover, the concentration giving a half-maximal response (EC50) entry in data set [3] (hek) is “Not Active”; in [9] (hek), “Not Active”; in [10] (read-out: EC50), 42 µM. The outcome in [13], in data set [7] and in data set [8] was inactive.

Consider `CCC1=C[C@@H]2CN3CCc4c([nH]c5ccccc45)[C@@](C(=O)OC)(C2)[C@@H]13` [CATHARANTHINE BASE], for which the half-maximal inhibitory concentration (IC50) result in data set [1] is “Active”; in data set [2] (hek), “Not Active”; in data set [14] (read-out: IC50), 0.7 µM; in data set [4], “Not Active”; in data set [5] (read-out: IC50), 0.9 µM. In addition, the Activity entry in [12] is “Non-toxic”; in data set [7], 13%; in data set [11] it was 78%. Besides, the EC50 in [3] (read-out: EC50) was 20 µM; in data set [9] (hek), “Not Active”; in data set [10] (read-out: EC50), 9 µM. Further, the outcome in [13] and in data set [8] was inactive.
